Experimental data published in patent publication US20230210864A1, “AGENT FOR PROMOTING CORNEAL ENDOTHELIAL CELL ADHESION” (Senju Pharmaceutical Co., Ltd., priority 2007, published 2023).

What was measured:
[1] = system: monkey corneal endothelial cells; assay: Primary culture of monkey corneal endothelial cells, toluidine blue staining, total area of cultured cells (Image J); type: cell-based, Macaca fascicularis; conditions: Y-27632 10 μM, day 10
Experimental: From the corneal tissue isolated from Macaca fascicularis euthanized, Descemet's membrane with corneal endothelial cells attached thereto was separated. In the same manner as in Example 2, for the ROCK inhibitor(+) group, the Descemet's membrane was placed in a medium for corneal endothelium added with Y-27632 (10 μM) and incubated under the conditions of 37° C., 5% CO2 for 10 min. For the ROCK inhibitor(−) group, the membrane was placed in a medium for corneal endothelium without addition of Y-27632 and incubated for 10 min under the same conditions. As the medium for corneal endothelium, the same cell culture medium as in Example 1 was used. The Descemet's membrane after the incubation was incubated together with Dispase II (1.2 U/ml, Roche Applied Science) under the conditions of 37° C., 5% CO2 for 45 min, and the corneal endothelial cells were mechanically separated by a pipetting operation. The separated corneal endothelial cells were centrifuged and stirred in the media for corneal endothelium with Y-27632(+) and Y-27632(−) to the same concentration, and the cells were seeded on a 96 well plate at a density of about 2000 cells per well. […] The total area of the cells was measured using Image J (National Institutes of Health) and analyzed (FIG. 6C).

[2] = system: human corneal endothelial cells; assay: Primary culture of human corneal endothelial cells with Y-27632, phase contrast observation; type: cell-based; conditions: Y-27632 10 μM
Experimental: Of human corneal tissues obtained from the US eye bank, the central part (diameter 7 mm) had been used for corneal transplantation and the remaining surrounding corneal tissue was used. The Descemet's membrane with corneal endothelial cells adhered thereto was separated. For the ROCK inhibitor(+) group, the Descemet's membrane was placed in a medium for corneal endothelium added with Y-27632 (10 μM) and incubated under the conditions of 37° C., 5% CO2 for 10 min. For the ROCK inhibitor(−) group, the membrane was placed in a medium for corneal endothelium without addition of Y-27632 and incubated for 10 min under the same conditions. As the medium for corneal endothelium, the same culture medium as in Example 1 was used. The Descemet's membrane after the incubation was incubated together with Dispase II (1.2 U/ml, Roche Applied Science) under the conditions of 37° C., 5% CO2 for 45 min, and the corneal endothelial cells were mechanically separated by a pipetting operation. The separated corneal endothelial cells were centrifuged and stirred in the media for corneal endothelium with Y-27632(+) and Y-27632(−) to the same concentration, and the cells were seeded on a 48 well plate pre-treated with an FNC coating mix (Athena ES) at a density of about 10000 cells per well. […]

[3] = system: monkey corneal endothelial cells; assay: Apoptosis of monkey corneal endothelial cells (flow cytometry with Annexin V and PI); type: cell-based, Macaca fascicularis; conditions: Y-27632 10 μM, day 1 of the passage culture
Experimental: The Macaca fascicularis corneal endothelial cells passage-cultured in the same manner as in Example 6 were subcultured to a dilution of ¼. A medium for corneal endothelium added with Y-27632 (10 μM) was used for the ROCK inhibitor(+) group and a medium for corneal endothelium without addition of Y-27632 was used for the ROCK inhibitor(−) group. On day 1 of the passage culture, all the cells including those in the medium were collected using 0.05% trypsin and subjected to flow cytometry using Annexin V and PI (Propidium Iodide), and apoptosis was examined (FIGS. 14 and 15).

[4] = system: monkey corneal endothelial cells; assay: Passage culture of monkey corneal endothelial cells with Y-27632, cell count by CellTiter-Glo; type: cell-based, Macaca fascicularis; conditions: Y-27632 10 μM, dilution ½, ⅙ or ⅛
Experimental: From the corneal tissue isolated from Macaca fascicularis euthanized, Descemet's membrane with corneal endothelial cells attached thereto was separated. The Descemet's membrane was incubated together with Dispase II (1.2 U/ml, Roche Applied Science) under the conditions of 37° C., 5% CO2 for 45 min, and the corneal endothelial cells were mechanically separated by a pipetting operation. The separated corneal endothelial cells were centrifuged and seeded on a media for corneal endothelium. The corneal endothelial cells that reached confluent were incubated with 0.05% trypsin under the conditions of 37° C., 5% CO2 for 10 min, and passage-cultured. After 4 to 6 passages, the corneal endothelial cells were placed in a 96-well plate to a dilution of ½, ⅙ or ⅛. The passage culture was continued using a medium for corneal endothelium added with Y-27632 (10 μM) for the ROCK inhibitor(+) group and a medium for corneal endothelium without addition of Y-27632 for the ROCK inhibitor(−) group. At 24 hr after the passage, the cells were counted in the same manner as in Example 5 using CellTiter-Glo (registered trade mark, Promega) (FIG. 8).

CC(N)[C@H]1CC[C@H](C(=O)Nc2ccncc2)CC1 (single isomer, unassigned; (+)) [Y-27632, (+)-trans-4-(1-aminoethyl)-1-(4-pyridylcarbamoyl)cyclohexane]
total area of cultured cells as compared to the ROCK inhibitor(−) [1]: about 1.6 fold | cell layer morphology and density on day 7 after the start of the culture [2]: a confluent and highly dense single cell layer consisting of cells (uniform polygonal cells) similar to normal corneal endothelial cells was formed | number of apoptotic cells per 1×10^4 cells, compared to ROCK inhibitor(−) group [3]: significant decrease | ratio of apoptotic cells to the entire cells, compared to ROCK inhibitor(−) group [3]: significant decrease | number of cells that adhered onto the plate at 24 hr after the passage, compared to medium without Y-27632 [4]: significantly high
